Laboratory results from patent US20160200743A1, “BORON-CONTAINING SMALL MOLECULES AS ANTI-INFLAMMATORY AGENTS” (ANACOR PHARMACEUTICALS, INC., priority 2013, published 2016).

Molecular target: Human PDE4 (PDE4B2 truncated) (Homo sapiens, UniProt Q07343)
Experiment: Measurement of Phosphodiesterase 4 (PDE4) inhibition, zinc and barium precipitation method with 3H-cAMP
Assay type: biochemical
Settings: PDE4B2 truncated catalytic domain, 0.3 pM enzyme, 20 min pre-incubation, 30° C. for 6 minutes
Procedure: Human PDE4 enzymatic activity was assayed using the zinc and barium precipitation method of Saldou, N. et at (1998: Cell Signal, vol 10, No. 6, pp 427-440). The assay was performed in 96-well v-bottom plates (BrandPlates, Wertheim, Germany). PDE4B2 truncated is the catalytic domain including the UCR2 and a portion of the UCR1 domain of PDE4B2 (23.4 mg/mL) from Proteros Biostructures. Final concentration of enzyme in the assay was 0.3 pM. Stocks of the tested compounds were prepared in 100% DMSO at a concentration of 40 mM. The 105-μL reaction volume consisted of 45 mM Tris-HCl, pH 7.5, 12.5 mM MgSO4, 1.5 μM […] (Sigma, St Louis, Mo.) supplemented with 0.15 μM ^3H-cAMP (Perkin Elmer, Waltham, Mass.). Compounds were pre-incubated with enzyme at room temperature for 20 min prior to initiating the reaction by adding substrate (cAMP supplemented with ^3H-cAMP). After incubation at 30° C. for 6 minutes, the reaction was stopped by the addition of 50 μL fresh made 21.5 mM ZnSO4.7H2O (Alfa Aesar, Ward Hill, Mass.) containing 5 mM AMP as a co-precipitant. Total AMP was precipitated by the addition of 50 μL 17.5 mM Ba(OH)2, prepared fresh daily in autoclaved MilliQ water. 180 uL of well-mixed precipitate was transferred and collected by filtration (Millipore Multiscreen; MSFBN6B50). The plates were washed five times with cold wash solution (1 mM NaOH, 100 mM NaCl) and dried for 30 min to 1 hour at 65±10° C. or overnight at room temperature. The bottoms of plates were sealed with clear tapes (Millipore Co-operation, Billerica, Mass.) and 50±10 μL of scintillation cocktail (Perkin Elmer Waltham, Mass.) was added. The plates were top sealed and radioactivity was measured with scintillation counter.

Human PDE4 (PDE4B2 truncated), sequence (Q07343 212-659 limits assumed): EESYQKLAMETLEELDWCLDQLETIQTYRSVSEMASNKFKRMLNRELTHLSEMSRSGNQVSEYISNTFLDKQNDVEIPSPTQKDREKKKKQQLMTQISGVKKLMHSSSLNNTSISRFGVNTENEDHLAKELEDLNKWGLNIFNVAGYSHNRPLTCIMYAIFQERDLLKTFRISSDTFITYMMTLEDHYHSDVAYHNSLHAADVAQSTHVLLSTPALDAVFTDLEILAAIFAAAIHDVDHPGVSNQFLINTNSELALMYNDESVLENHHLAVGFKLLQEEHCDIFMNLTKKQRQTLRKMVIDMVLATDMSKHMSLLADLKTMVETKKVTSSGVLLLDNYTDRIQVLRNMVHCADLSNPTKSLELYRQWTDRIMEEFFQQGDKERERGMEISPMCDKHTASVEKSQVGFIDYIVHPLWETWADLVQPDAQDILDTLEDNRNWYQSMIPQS

IC50 [nM]	SMILES
427	N#Cc1ccc(C(=O)c2ccc3c(c2)COB3O)cc1 [A, 4-(1-hydroxy-1,3-dihydrobenzo[c][1,2]oxaborole-5-carbonyl)benzonitrile]
3090	N#Cc1ccc(C(O)c2ccc3c(c2)COB3O)cc1 (stereo not drawn) [B, 4-(hydroxy(1-hydroxy-1,3-dihydrobenzo[c][1,2]oxaborol-5-yl)methyl)benzonitrile]
47	N#Cc1ccc([S+]([O-])c2ccc3c(c2)COB3O)cc1 (stereo not drawn) [D, 4-(1-hydroxy-1,3-dihydrobenzo[c][1,2]oxaborol-5-ylsulfinyl)benzonitrile]
